One data set has as its system Sitobion avenae. As to the kind of experiment: Spraying of insecticide solution on 25 aphids in a Petri dish; degree of mortality. The data set is classed as in vivo. The conditions noted are these: read-out: degree of mortality. As for the experimental part: The aphids of the species Sitobion avenae used in the following examples were supplied by the Université de Picardie d'Amiens [University of Picardy of Amiens], laboratoire de biologie des plantes et contrôle des insectes ravageurs [Plant Biology and Insect Pest Control Laboratory], EA3900, 33, rue Saint Leu, Amiens 80000.
25 aphids of the species Sitobion avenae were introduced into a Petri dish into which the test solution was sprayed: • in dish 1, 1.8 g of a solution comprising 39.0 mg/l of diflubenzuron were sprayed; • in dish 2, 1.8 g of a solution comprising 39.0 mg/l of diflubezuron and 47.0 mg/l of 3-isopropyloxypropane-1,2-diol were sprayed.

The next data set relates to Lucilia caesar. The data set can be described thus: Spraying of insecticide solution on 30 flies in a cage; degree of mortality. The data set is classed as in vivo. The note with it: 1.8 g of solution; for degree of mortality: diflubenzuron 39.0 mg/l + glycerol ether 47.0 mg/l (cage 2). As for the experimental part:
30 flies of the species Lucilia caesar were introduced into each of the cages made with a cubic frame from lengths of wood and mosquito screens. One of the faces was pierced with a hole through which a sprayer for the test solution is introduced: • in cage 1, 1.8 g of a solution comprising 39.0 mg/l of diflubenzuron were sprayed • in cage 2, 1.8 g of a solution comprising 39.0 mg/l of diflubenzuron and 47.0 mg/l of 3-isopropyloxypropane-1,2-diol were sprayed.

The subject of another data set is herbaceous plants. The data set can be described thus: Spraying of herbicide solutions on 50×50 cm plots of land with herbaceous plants; deterioration of the vegetation observed. The data set is classed as in vivo. As for the experimental part:
The following tests were carried out on plots of land of 50×50 cm on which herbaceous plants occur. Each of the solutions tested is sprayed over a plot which is assigned to it.
The time necessary for the complete destruction of the vegetation was compared, on similar plots planted with herbaceous plants, with a herbicide alone, on the one hand, and the same herbicide to which has been added a glycerol ether: 3-methyloxypropane-1,2-diol, on the other hand.
A solution comprising 6 g/l of glyphosate (in the acid form) was sprayed over plot 1 in a proportion of 36 grams to the m^2.
A solution comprising […] and 0.9 g/l of 3-methyl-oxypropane-1,2-diol was sprayed over plot 2 in a proportion of 36 grams to the m^2.
The following sprayings were carried out on 4 plots covered with herbaceous plants: • Plot 1: glyphosate at 6 g/l (36 g of the solution to the m^2) • Plot 2: glyphosate at 4.5 g/l (36 g of the solution to the m^2) • Plot 3: a solution of glyphosate at 1.5 g/l 3-pentyloxypropane-1,2-diol at 0.9 g/l, in a proportion of 36 g of the solution to the m^2. • Plot 4: a solution of glyphosate at […] 3-pentyloxypropane-1,2-diol at 0.9 g/l, in a proportion of 36 g of the solution to the m^2.

Another data set concerns Candida albicans. As to the kind of experiment: Candida albicans on agar in a Petri dish with impregnated blotting paper disks; inhibition regions observed. The format is cell-based. The text has this: In the following examples, the Candida albicans test strain used is sold under the reference ATCC 10231, Collection Institut Pasteur.
A Candida albicans strain was inoculated on agar in a Petri dish. Disks of blotting paper impregnated with the following solutions were subsequently deposited at its surface:
• disk 1 is impregnated with a solution comprising […] • disk 2 is impregnated with a solution comprising 0.5 g/l of mancozeb • disk 3 is impregnated with a solution comprising 0.2 g/l of mancozeb • disk 4 is impregnated with a solution comprising 0.2 g/l of mancozeb and 0.1 g/l of 3-butyloxypropane-1,2-diol.

Where [1] appears, read: glyphosate 6 g/l + glycerol ether 0.9 g/l, 36 g of solution per m^2 (plot 2).
Where [2] appears, read: glyphosate 6 g/l alone, 36 g of solution per m^2 (plot 1).
The mark [3] stands for this setting: glyphosate 1.5 g/l + glycerol ether 0.9 g/l, 36 g of solution per m^2.
[4] abbreviates: glyphosate 3 g/l + glycerol ether 0.9 g/l, 36 g of solution per m^2.

By mortality is commonly meant the percentage killed.

Consider `O=C(NC(=O)c1c(F)cccc1F)Nc1ccc(Cl)cc1` [diflubenzuron, reference compound], for which the mortality at 39 µg/mL in the data set with Sitobion avenae came out at 21%; with Lucilia caesar (Lucilia caesar, diflubenzuron 39.0 mg/l alone (cage 1)) it was 29%.

Turning to `CCCCCCCCCCOCC(O)CO` (centres unmarked) [3-decyloxypropane-1,2-diol], in the data set on herbaceous plants (setting [1]), the “time after which deterioration began” value is given as 4 days and the “time after which deterioration was complete” value is 11 days.

For `O=C(O)CNCP(=O)(O)O` [glyphosate, reference compound], the “state of plot after 30 days” value with herbaceous plants (glyphosate 4.5 g/l alone, 36 g of solution per m^2 (plot 2)) is reported as “unaffected”. Further, in the data set with herbaceous plants (setting [2]), the “state of plot after 30 days” value is listed as “completely deteriorated”, the “time after which deterioration began” value was 8 days and the “time after which deterioration was complete” value amounted to 18 days.

Consider `CC(C)CCCCCCOCC(O)CO` (centres unmarked) [3-isononyloxypropane-1,2-diol], for which the figures for the “state of plot after 30 days” value with herbaceous plants (setting [3]) and in the data set with herbaceous plants (setting [4]) were “unaffected” and “completely deteriorated”, respectively.

As for mancozeb [reference compound], the “inhibition region of growth around the disk” value (“inhibition region” below) in the data set with Candida albicans (mancozeb 0.2 g/l alone (disk 3)) is “absence was observed of an inhibition region”; in the data set with Candida albicans (mancozeb 0.5 g/l alone (disk 2)) it was “absence was observed of an inhibition region”; in the data set on Candida albicans (mancozeb 0.8 g/l alone (disk 1)), “circular regions of inhibition of the growth”.

As to `CC(C)OCC(O)CO` (centres unmarked) [3-isopropyloxypropane-1,2-diol], in the data set with herbaceous plants (setting [3]), the “state of plot after 30 days” value was “unaffected”. In addition, the “state of plot after 30 days” value in the data set on herbaceous plants (setting [4]) is “completely deteriorated”. In the data set on herbaceous plants (setting [1]), the “time after which deterioration began” value is given as 3 days and the “time after which deterioration was complete” value is reported as 12 days. The degree of mortality with Lucilia caesar stood at 64%.

Take `CCOCC(O)COCC` [1,3-diethyloxypropan-2-ol]: in the data set with herbaceous plants (setting [1]), the “time after which deterioration began” value was 4 days and the “time after which deterioration was complete” value came out at 13 days.

As to `CCCCC(CC)COCC(O)CO` (centres unmarked) [3-(2-ethylhexyloxy)propane-1,2-diol], the “state of plot after 30 days” value was “unaffected” with herbaceous plants (setting [3]) and “completely deteriorated” in the data set on herbaceous plants (setting [4]). For the same compound, in the data set with herbaceous plants (setting [1]), the “time after which deterioration began” value came out at 3 days. The “time after which deterioration was complete” value in the data set with herbaceous plants (setting [1]) stood at 11 days. In addition, the degree of mortality in the data set with Lucilia caesar amounted to 56%. Besides, in the data set on Candida albicans (mancozeb 0.2 g/l + glycerol ether 0.05 g/l (disk 4)), the “inhibition region” value is reported as “circular regions of inhibition of the growth”.

In the case of `COCC(O)COC` [1,3-dimethyloxypropan-2-ol], in the data set on herbaceous plants (setting [1]), the “time after which deterioration began” value was determined as 4 days and the “time after which deterioration was complete” value amounted to 15 days.

Take `CCCCCCOCC(O)CO` (centres unmarked) [3-hexyloxypropane-1,2-diol]: the “state of plot after 30 days” value in the data set on herbaceous plants (setting [3]) is “unaffected”. Besides, the “state of plot after 30 days” value with herbaceous plants (setting [4]) is “completely deteriorated”. Also, in the data set on herbaceous plants (setting [1]), the “time after which deterioration began” value was found to be 3 days and the “time after which deterioration was complete” value was found to be 10 days.

As to `CCCCCOCC(O)CO` (centres unmarked) [3-pentyloxypropane-1,2-diol], in the data set with herbaceous plants (glyphosate 0.75 + glycerol ether 0.9 g/l, 36 g of solution per m^2), the “state of plot after 30 days” value is “unaffected”. In addition, the “state of plot after 30 days” value in the data set with herbaceous plants (setting [3]) is reported as “completely deteriorated”. Besides, in the data set with herbaceous plants (setting [1]), the “time after which deterioration began” value was found to be 3 days and the “time after which deterioration was complete” value was 10 days. Further, the “inhibition region” value in the data set on Candida albicans (mancozeb 0.2 g/l + glycerol ether 0.25 g/l (disk 4)) is “circular regions of inhibition of the growth”.

With `COCC(O)CO` (centres unmarked) [3-methyloxypropane-1,2-diol], in the data set with herbaceous plants (setting [1]), the “time after which deterioration began” value was determined as 4 days and the “time after which deterioration was complete” value came out at 13 days.

As for `CCOCC(O)CO` (centres unmarked) [3-ethyloxypropane-1,2-diol], in the data set on herbaceous plants (setting [1]), the “time after which deterioration began” value is recorded as 3 days and the “time after which deterioration was complete” value turned out to be 11 days.

`Cc1nc(N(C)C)nc(OC(=O)N(C)C)c1C` [pirimicarb]: the mortality at 78.1 µg/mL with Sitobion avenae turned out to be 16%.

Regarding `CCCCOCC(O)CO` (centres unmarked) [3-butyloxypropane-1,2-diol], the “state of plot after 30 days” value in the data set with herbaceous plants (setting [3]) is “unaffected”; in the data set with herbaceous plants (setting [4]) it was “completely deteriorated”. Besides, in the data set with herbaceous plants (setting [1]), the “time after which deterioration began” value was found to be 3 days. In addition, the “time after which deterioration was complete” value in the data set on herbaceous plants (setting [1]) turned out to be 10 days. Further, the “inhibition region” value in the data set with Candida albicans (mancozeb 0.2 g/l + glycerol ether 0.1 g/l (disk 4)) was “circular regions of inhibition of the growth”.
